From patent US20220380319A1 (Bial - R&D Investments, S.A., priority 2019, published 2022)
Values after ≈ are worked out from the molar mass of the structure shown.

Columns and labels:
acid ceramidase = molecular target: T1, acid ceramidase (Homo sapiens, UniProt Q13510); experiment: Acid ceramidase inhibition, biochemical fluorescent assay with cell lysates overexpressing acid ceramidase, substrate Rbm14-12; details: substrate Rbm14-12 6.3 μM, pH 4.5
T1 construct: Cell lysates overexpressing acid ceramidase were used as the enzyme source; expressed in transfected cells
T1 sequence (Q13510 22-395): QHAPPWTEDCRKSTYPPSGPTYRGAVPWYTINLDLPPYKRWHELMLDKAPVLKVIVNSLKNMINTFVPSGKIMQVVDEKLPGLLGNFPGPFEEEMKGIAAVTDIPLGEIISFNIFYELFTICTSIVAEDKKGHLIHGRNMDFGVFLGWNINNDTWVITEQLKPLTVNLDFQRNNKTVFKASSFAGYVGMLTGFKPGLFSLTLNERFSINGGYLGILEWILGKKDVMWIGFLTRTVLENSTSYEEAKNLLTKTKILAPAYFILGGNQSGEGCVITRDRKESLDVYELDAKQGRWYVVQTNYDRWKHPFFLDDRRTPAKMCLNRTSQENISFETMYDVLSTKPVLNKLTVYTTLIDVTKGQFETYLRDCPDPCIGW
In short: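 IC50 derived by four-parameter fitting of fluorescence (ex360 nm, em446 nm) produced after 1 hr in methanol/NaIO4/glycine stop buffer, pH 10.6. Reaction: 6.3 μM Rbm14-12, 1 hr RT, following 1 hr RT compound preincubation with 10 μg overexpressing-cell lysate protein in pH 4.5 NaAC/NaCl buffer.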

[1] = Compound solubility in water

Structure (SMILES) | IC50 (acid ceramidase) | solubility [1]
CC(C)C#CCNC(=O)n1cnc2c(N3CCN(C)CC3)cccc21 [Example 280, N-(4-Methylpent-2-ynyl)-4-(4-methylpiperazin-1-yl)-1H-benzo[d]imidazole-1-carboxamide] | < 200 nM | 16 µg/mL (≈ 47.1 µM)
CC#CCNC(=O)n1cnc2c(N3CCN(C)CC3)cccc21 [Example 281, N-(But-2-yn-1-yl)-4-(4-methylpiperazin-1-yl)-1H-benzo[d]imidazole-1-carboxamide] | 200 to 1000 nM | 32 µg/mL (≈ 103 µM)
CN1CCN(c2cccc3c2ncn3C(=O)NCC#Cc2ccccc2)CC1 [Example 282, 4(4-Methylpiperazin-1-yl)-N-(3-phenylprop-2-yn-1-yl)-1H-benzo[d]imidazole-1-carboxamide] | < 200 nM | 21 µg/mL (≈ 56.2 µM)
CN1CCN(c2cccc3c2ncn3C(=O)NCC#CC2CC2)CC1 [Example 283, N-(3-Cyclopropylprop-2-ynyl)-4-(4-methylpiperazin-1-yl)-1H-benzo[d]imidazole-1-carboxamide] | < 200 nM | 28 µg/mL (≈ 83 µM)
CN1CCN(c2cccc3c2ncn3C(=O)NCC#CCC2CC2)CC1 [Example 284] | < 200 nM | 30 µg/mL (≈ 85.4 µM)
CN1CCN(c2cccc3c2ncn3C(=O)NCC#CCC2(C(F)(F)F)CC2)CC1 [Example 285, 4-(4-Methylpiperazin-1-yl)-N-(4-(1-(trifluoromethyl)cyclopropyl)but-2-yn-1-yl)-1H-benzo[d]imidazole-1-carboxamide] | < 200 nM | 22 µg/mL (≈ 52.4 µM)
O=C(NCCCc1ccccc1)n1cnc2c(N3CCN(C4COC4)CC3)cccc21 [Example 286, 4-(4-(Oxetan-3-yl)piperazin-1-yl)-N-(3-phenylpropyl)-1H-benzo[d]imidazole-1-carboxamide] | < 200 nM | 24 µg/mL (≈ 57.2 µM)
CN1CC(N2CCN(c3cccc4c3ncn4C(=O)NCCC3CCC(F)(F)C3)CC2)C1 (stereo not shown) [Example 287, N-(2-(3,3-Difluorocyclopentyl)ethyl)-4-(4-(1-methylazetidin-3-yl)piperazin-1-yl)-1H-benzo[d]imidazole-1-carboxamide] | 200 to 1000 nM | 36 µg/mL (≈ 80.6 µM)
N#CCCN1CCN(c2cccc3c2ncn3C(=O)NCCC2CCC(F)(F)C2)CC1 (stereo not shown) [Example 288, 4-(4-(2-Cyanoethyl)piperazin-1-yl)-N-(2-(3,3-difluorocyclopentyl)ethyl)-1H-benzo[d]imidazole-1-carboxamide] | 200 to 1000 nM | 26 µg/mL (≈ 60.4 µM)
CN1C2CCC1CN(c1cccc3c1ncn3C(=O)NCCC1CCC(F)(F)C1)C2 (stereo not shown) [Example 289, N-(2-(3,3-Difluorocyclopentyl)ethyl)-4-(8-methyl-3,8-diazabicyclo[3.2.1]octan-3-yl)-1H-benzo[d]imidazole-1-carboxamide] | 200 to 1000 nM | 39 µg/mL (≈ 93.4 µM)
O=C(NCCC1CCC(F)(F)C1)n1cnc2c(N3CCN4CCCC4C3)cccc21 (stereo not shown) [Example 290, N-(2-(3,3-Difluorocyclopentyl)ethyl)-4-(hexahydropyrrolo[1,2-a]pyrazin-2(1H)-yl)-1H-benzo[d]imidazole-1-carboxamide] | 200 to 1000 nM | 28 µg/mL (≈ 67.1 µM)
CCN1CCN(c2cccc3c2ncn3C(=O)NCCC2CCC(F)(F)C2)CC1 (stereo not shown) [Example 291, N-(2-(3,3-Difluorocyclopentyl)ethyl)-4-(4-ethylpiperazin-1-yl)-1H-benzo[d]imidazole-1-carboxamide] | 200 to 1000 nM | 20 µg/mL (≈ 49.3 µM)
CN1CC2CCC1CN2c1cccc2c1ncn2C(=O)NCCC1CCC(F)(F)C1 (stereo not shown) [Example 292, N-(2-(3,3-Difluorocyclopentyl)ethyl)-4-(5-methyl-2,5-diazabicyclo[2.2.2]octan-2-yl)-1H-benzo[d]imidazole-1-carboxamide] | 200 to 1000 nM | 36 µg/mL (≈ 86.2 µM)
CN1CC2CC1CN2c1cccc2c1ncn2C(=O)NCCC1CCC(F)(F)C1 (stereo not shown) [Example 293, N-(2-(3,3-difluorocyclopentyl)ethyl)-4-(5-methyl-2,5-diazabicyclo[2.2.1]heptan-2-yl)-1H-benzo[d]imidazole-1-carboxamide] | 200 to 1000 nM | 39 µg/mL (≈ 96.7 µM)
